These results are taken from patent US6518257B1, “1-substituted phenyl-1-(1h-imidazol-4-yl) alcohols, process for producing the same and use thereof” (Takeda Chemical Industries, Ltd., priority 1999, dated 2003).

The IC50 is the concentration needed to halve the response being measured.

One assay deals with T1, Rat Steroid C17,20-lyase (Rattus norvegicus, UniProt P11715).
T1 construct: Testes were excised from 13-week-old male SD rats, homogenized, and centrifuged to give microsomes; from tissue; host or cells: testis microsomes of 13-week-old male SD rats
T1 sequence (P11715 1-507): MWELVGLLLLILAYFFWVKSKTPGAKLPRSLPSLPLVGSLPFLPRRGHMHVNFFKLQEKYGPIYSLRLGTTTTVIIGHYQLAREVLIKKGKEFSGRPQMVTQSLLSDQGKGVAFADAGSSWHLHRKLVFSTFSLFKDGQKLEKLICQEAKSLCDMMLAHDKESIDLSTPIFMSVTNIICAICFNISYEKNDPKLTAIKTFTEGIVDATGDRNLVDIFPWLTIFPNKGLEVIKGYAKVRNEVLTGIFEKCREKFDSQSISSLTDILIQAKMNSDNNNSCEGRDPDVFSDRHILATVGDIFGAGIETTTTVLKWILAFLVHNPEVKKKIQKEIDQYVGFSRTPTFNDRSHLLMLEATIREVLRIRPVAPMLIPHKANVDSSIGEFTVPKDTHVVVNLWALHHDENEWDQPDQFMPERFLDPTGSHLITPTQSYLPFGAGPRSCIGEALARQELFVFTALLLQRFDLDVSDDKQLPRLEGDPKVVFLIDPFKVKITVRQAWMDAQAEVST
The assay is described as follows: Assay of inhibitory activity on rat steroid C17,20-lyase (testis microsomes, [1,2-3H]-17-α-hydroxyprogesterone substrate, TLC). It is filed as biochemical. The settings on record: rat testis microsomes (7 μg/10 μl), 10 nM [1,2-3H]-17-α-hydroxyprogesterone, NADPH, pH 7.4, 37° C., 7 minutes; products androstenedione and testosterone. As for the experimental part:
Assay of Inhibitory Activity on Rat Steroid C17,20-lyase
The activity was determined according to The Prostate, vol. 26, 140-150 (1995).
Testes were excised from 13-week-old male SD rats, homogenized, and centrifuged to give microsomes. [1,2-^3H]-17-α-hydroxyprogesterone having a final concentration of 10 nM, NADPH solution and test compounds were dissolved in 10 μl of 100 mM phosphate buffer (pH 7.4) and microsome protein (7 μg/10 μl) was added. The reaction mixture was incubated at 37° C. for 7 minutes. Ethyl acetate (40 μl) was added and the mixture was centrifuged. The substrate and the products (androstenedione and testosterone) in the supernatant were separated by silica gel thin layer chromatography (TLC). The spots were detected and quantitatively determined by BAS 2000 Bioimage analyzer. The concentration of the test compounds necessary to reduce the amount of the products by 50% (IC50) relative to the amount of the products without test compound (control) as 100% was calculated, and shown in Table 1.

Assay [1] deals with Testosterone Synthesis in Rats. In words: Assay of inhibitory activity on testosterone synthesis in rats (serum testosterone by radioimmunoassay). It is filed as in vivo, rat. The settings on record: 50 mg/kg orally, 9-week-old male SD rats, serum testosterone two hours after administration, as percentage of control group. The method, then: Assay of Inhibitory Activity on Testosterone Synthesis in Rats
Test compounds (50 mg/kg) were orally administered to 9-week-old male SD (Sprague Dawley) rats. Two hours after administration of the compounds, blood was drawn and testosterone concentration in the obtained serum was measured by radioimmunoassay. The percentage (T/C, %) of the testosterone concentration of test compounds administration group to that of the control group was calculated, and taken as the inhibitory activity on testosterone synthesis.

Take `CC(C)C(O)(c1ccc(-c2ccc(F)cc2)cc1)c1c[nH]cn1` (stereo not drawn) [Example 4, 1-(4′-fluoro[1,1′-biphenyl]-4-yl)-1-(1H-imidazol-4-yl)-2-methyl-1-propanol]: half-maximal inhibition on Rat Steroid C17,20-lyase (IC50) required 28 nM. Take `CC(C)C(O)(c1cccc(-c2ccccc2)c1)c1c[nH]cn1` (stereo not drawn) [Example 6, 1-[1,1′-biphenyl]-3-yl-1-(1H-imidazol-4-yl)-2-methyl-1-propanol]: at Rat Steroid C17,20-lyase, the IC50 was 15 nM. Also, the “testosterone synthesis inhibitory activity (T/C, %)” value in assay [1] stood at 4.3%. For `COc1ccc(-c2cccc(C(O)(c3c[nH]cn3)C(C)C)c2)cc1` (stereo not drawn) [Example 9, 1-(1H-imidazol-4-yl)-1-(4′-methoxy[1,1′-biphenyl]-3-yl)-2-methyl-1-propanol], in that order: 10 nM and 4.6%. On to `CC(C)C(O)(c1cccc(-c2ccc(F)cc2)c1)c1c[nH]cn1` (stereo not drawn) [Example 13, 1-(4′-fluoro[1,1′-biphenyl]-3-yl)-1-(1H-imidazol-4-yl)-2-methyl-1-propanol], for which, at Rat Steroid C17,20-lyase, the IC50 worked out at 8.3 nM. Also, the “testosterone synthesis inhibitory activity (T/C, %)” value in assay [1] turned out to be 4.7%.

`Cc1ccccc1-c1cccc(C(O)(c2c[nH]cn2)C(C)C)c1` (stereo not drawn) [Example 17, 1-(1H-imidazol-4-yl)-2-methyl-1-(2′-methyl[1,1′-biphenyl]-3-yl)-1-propanol] came in with an IC50 on Rat Steroid C17,20-lyase of 12 nM. This counts as double-digit nanomolar. At Rat Steroid C17,20-lyase, `CCC(O)(c1cccc(-c2ccc(F)cc2)c1)c1c[nH]cn1` (stereo not drawn) [Example 27, 1-[4′-fluoro[1,1′-biphenyl]-3-yl]-1-(1H-imidazol-4-yl)-1-propanol] yielded an IC50 of 11 nM.
